The results in this text go back to ChEMBL document CHEMBL1150967, “Two new diterpene glycosides from the soft coral lemnalia bournei” (J Nat Prod, 1998).

Common to all, as to type: functional, cell-based
Assay [1] is described as follows: Cytotoxicity against human HepA cells.
Assay [2] can be described thus: Cytotoxicity against mouse EAC cells. As to conditions: Ehrlich.
Assay [3] is described as follows: Cytotoxicity against mouse S180A cells.

≈ marks a conversion by molar mass, not a printed value.

Usually IC50 stands for the point on the concentration scale where inhibition reaches its midpoint. Lower therefore signals greater potency. Take `CC(=O)O[C@@H]1[C@@H](O)[C@@H]2O[C@@H]([C@H](C)CCC[C@H](C)[C@@H]3CC=C(C)[C@H]4CCC(C)=C[C@@H]34)OC[C@@H](O2)[C@H]1O` [LEMNABOURSIDE B]: the IC50 was determined as 33.5 µg/mL (≈ 68 µM) in assay [1], 73.3 µg/mL (≈ 149 µM) in assay [2] and 40 µg/mL (≈ 81.2 µM) in assay [3].

As to `CC(=O)O[C@H]1[C@H](O)[C@@H](O)[C@@H]2O[C@@H]([C@H](C)CCC[C@H](C)[C@@H]3CC=C(C)[C@H]4CCC(C)=C[C@@H]34)OC[C@H]1O2` [LEMNABOURSIDE C], the IC50 in assay [1] came out at 41.4 µg/mL (≈ 84 µM); in assay [2], 40.5 µg/mL (≈ 82.2 µM); in assay [3], 187 µg/mL (≈ 379 µM).

On to `CC1=C[C@H]2[C@H]([C@H](C)CCC[C@@H](C)C3OC[C@H]4O[C@@H](O3)[C@H](O)[C@@H](O)[C@@H]4O)CC=C(C)[C@H]2CC1` (some centres undefined) [LEMNABOURSIDE], for which the IC50 in assay [1] came out at 31.6 µg/mL (≈ 70.1 µM); in assay [2], 97.8 µg/mL (≈ 217 µM); in assay [3], 27.4 µg/mL (≈ 60.8 µM).
